Reference: US4396626A, “Cyclic compounds and their use” (Beecham Group Limited, priority 1980, dated 1983)
Where a name gives a salt, the structure may show the parent alone.

Columns and labels:
[1] = tested on: phenyl-p-quinone writhing in mice; assay: Analgesic activity: phenyl-p-quinone induced writhing in mice; type: in vivo, male T/O mice; conditions: 1 hour prior to phenyl-p-quinone injection, observed 8 minutes, Litchfield and Wilcoxon; for ED50: Mus musculus, po, read-out: ED50 (mice prevented from writhing)
Method: Groups of 10 male T/O mice weighing between 20 and 25 g were injected intraperitoneally with 0.2 ml of a 0.02% solution of phenyl-p-quinone maintained at 37° C. […] Compounds were administered orally 1 hour prior to phenyl-p-quinone injection. The percentage of mice prevented from writhing in each group was plotted against dose of compound on log probit paper and the ED50 was calculated by the method of Litchfield, J. T. and Wilcoxon, F. (1949), J. Pharmac. exp. Ther., 96 (2), 99-113.

[2] = tested on: carrageenin-induced oedema in rat paw; assay: Anti-inflammatory activity: standard rat paw carrageenin-induced oedema test; type: in vivo, male Wistar rats; conditions: 1 hr before carrageenin
Method: The sodium salt of compound (1) was tested for anti-inflammatory activity by the standard rat paw carrageenin-induced oedema test:
Groups of 8 male Wistar rats weighing between 120 and 165 g. were dosed orally with the compound 1 hr. before the sub-cutaneous injection of 0.1 ml 1.5% carrageenin into a paw to induce oedema. The duration of the oedema was 3-31/2 hr. The significance of results was assessed by Student's `t` test.

SMILES | ED50 [1] [mg/kg] | ED50 (mice prevented from writhing) ([1]; oral, listed as No salt thereof) [mg/kg p.o.] | % inhibition of oedema w.r.t. methylcellulose control ([2]; 1.67 mg/kg p.o., *0.001 < p < 0.01) [%] | % inhibition of oedema w.r.t. methylcellulose control ([2]; 5 mg/kg p.o., **p < 0.001) [%] | % inhibition of oedema w.r.t. methylcellulose control ([2]; 15 mg/kg p.o., **p < 0.001) [%] | ED25 ([2]; rat, oral, read-out: ED25 (inhibition of oedema)) [mg/kg]
Cn1c(CC(=O)O)cc(C(F)(F)F)c1C(=O)c1ccc(Cl)cc1 [(1), 5-p-Chlorobenzoyl-1-methyl-4-trifluoromethylpyrrole-2-acetic acid] | 1.75 |  |  |  |  | 
CC(=O)CCc1cc(C(F)(F)F)c(C(=O)c2ccc(Cl)cc2)n1C [(13), 4-[5'-(4"-chlorobenzoyl)-1'-methyl-4'-trifluoromethyl-2'-pyroyl]butan-2-one] | 25 |  |  |  |  | 
Cn1c(CC(=O)O)cc(C(F)(F)F)c1C(=O)c1ccc(Cl)cc1 [sodium salt of compound (1)] |  | 1.6 | 18 | 25 | 30 | 5.5
